Publication PMC11167047 (Cell Death Discovery, 2024)

Key:
Assay in all cases: kinome screen (33PanQinase)
Assay type in all cases: biochemical
BRAF = target: T1, BRAF (Homo sapiens, UniProt P15056)
T1 construct: purchased Reaction Biology Europe GmbH (formerly ProQinase)
Description: (§1) The Kinome Screening was performed by Reaction Biology Europe GmbH (http://reactionbiology.com; Freiburg i. Br., Germany).

CDK2/CycE1 = target: T2, CDK2/CycE1 (Homo sapiens, UniProt P24941)
T2 construct: purchased Reaction Biology Europe GmbH (formerly ProQinase)
Description: as §1

CDK4/CycD3 = target: T3, CDK4/CycD3 (Homo sapiens, UniProt P11802)
T3 construct: purchased Reaction Biology Europe GmbH (formerly ProQinase)
Description: as §1

CDK5/p25NCK = target: T4, CDK5/p25NCK (Homo sapiens, UniProt Q00535)
T4 construct: purchased Reaction Biology Europe GmbH (formerly ProQinase)
Description: as §1

CLK4 = target: T5, CLK4 (Homo sapiens, UniProt Q9HAZ1)
T5 construct: purchased Reaction Biology Europe GmbH (formerly ProQinase)
Description: as §1

DYRK2 = target: T6, DYRK2 (Homo sapiens, UniProt Q92630)
T6 construct: purchased Reaction Biology Europe GmbH (formerly ProQinase)
T6 sequence (Q92630 1-601): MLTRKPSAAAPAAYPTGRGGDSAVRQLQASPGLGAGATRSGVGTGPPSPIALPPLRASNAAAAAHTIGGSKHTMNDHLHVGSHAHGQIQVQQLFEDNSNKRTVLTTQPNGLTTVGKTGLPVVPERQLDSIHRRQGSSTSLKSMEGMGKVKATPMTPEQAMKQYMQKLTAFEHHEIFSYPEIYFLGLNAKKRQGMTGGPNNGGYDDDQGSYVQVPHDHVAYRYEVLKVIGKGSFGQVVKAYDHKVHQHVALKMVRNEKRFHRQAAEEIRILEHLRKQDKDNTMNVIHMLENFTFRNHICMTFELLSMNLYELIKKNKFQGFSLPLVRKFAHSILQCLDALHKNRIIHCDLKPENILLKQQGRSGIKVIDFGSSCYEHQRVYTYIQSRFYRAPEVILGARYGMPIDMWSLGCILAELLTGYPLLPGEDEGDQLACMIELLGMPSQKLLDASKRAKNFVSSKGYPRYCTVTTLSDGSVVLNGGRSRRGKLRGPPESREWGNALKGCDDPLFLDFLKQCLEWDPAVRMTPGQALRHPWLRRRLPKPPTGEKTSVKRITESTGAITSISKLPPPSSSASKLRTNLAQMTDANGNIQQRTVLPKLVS
Description: as §1

FES = target: T7, FES (Homo sapiens, UniProt P07332)
T7 construct: purchased Reaction Biology Europe GmbH (formerly ProQinase)
Description: as §1

LCK = target: T8, LCK (Homo sapiens, UniProt P06239)
T8 construct: purchased Reaction Biology Europe GmbH (formerly ProQinase)
Description: as §1

LIMK2 = target: T9, LIMK2 (Homo sapiens, UniProt P53671)
T9 construct: purchased Reaction Biology Europe GmbH (formerly ProQinase)
Description: as §1

MAP4K4 = target: T10, MAP4K4 (Homo sapiens, UniProt O95819)
T10 construct: purchased Reaction Biology Europe GmbH (formerly ProQinase)
Description: as §1

MAPKAPK2 = target: T11, MAPKAPK2 (Homo sapiens, UniProt P49137)
T11 construct: purchased Reaction Biology Europe GmbH (formerly ProQinase)
Description: as §1

MKNK1 = target: T12, MKNK1 (Homo sapiens, UniProt Q9BUB5)
T12 construct: purchased Reaction Biology Europe GmbH (formerly ProQinase)
Description: as §1

PKCβ1 = target: T13, PKCβ1 (Homo sapiens, UniProt P05771)
T13 construct: purchased Reaction Biology Europe GmbH (formerly ProQinase)
Description: as §1

PKCη = target: T14, PKCη (Homo sapiens, UniProt P24723)
T14 construct: purchased Reaction Biology Europe GmbH (formerly ProQinase)
Description: as §1

PKCν = target: T15, PKCν (Homo sapiens, UniProt O94806)
T15 construct: purchased Reaction Biology Europe GmbH (formerly ProQinase)
T15 sequence (O94806 1-890): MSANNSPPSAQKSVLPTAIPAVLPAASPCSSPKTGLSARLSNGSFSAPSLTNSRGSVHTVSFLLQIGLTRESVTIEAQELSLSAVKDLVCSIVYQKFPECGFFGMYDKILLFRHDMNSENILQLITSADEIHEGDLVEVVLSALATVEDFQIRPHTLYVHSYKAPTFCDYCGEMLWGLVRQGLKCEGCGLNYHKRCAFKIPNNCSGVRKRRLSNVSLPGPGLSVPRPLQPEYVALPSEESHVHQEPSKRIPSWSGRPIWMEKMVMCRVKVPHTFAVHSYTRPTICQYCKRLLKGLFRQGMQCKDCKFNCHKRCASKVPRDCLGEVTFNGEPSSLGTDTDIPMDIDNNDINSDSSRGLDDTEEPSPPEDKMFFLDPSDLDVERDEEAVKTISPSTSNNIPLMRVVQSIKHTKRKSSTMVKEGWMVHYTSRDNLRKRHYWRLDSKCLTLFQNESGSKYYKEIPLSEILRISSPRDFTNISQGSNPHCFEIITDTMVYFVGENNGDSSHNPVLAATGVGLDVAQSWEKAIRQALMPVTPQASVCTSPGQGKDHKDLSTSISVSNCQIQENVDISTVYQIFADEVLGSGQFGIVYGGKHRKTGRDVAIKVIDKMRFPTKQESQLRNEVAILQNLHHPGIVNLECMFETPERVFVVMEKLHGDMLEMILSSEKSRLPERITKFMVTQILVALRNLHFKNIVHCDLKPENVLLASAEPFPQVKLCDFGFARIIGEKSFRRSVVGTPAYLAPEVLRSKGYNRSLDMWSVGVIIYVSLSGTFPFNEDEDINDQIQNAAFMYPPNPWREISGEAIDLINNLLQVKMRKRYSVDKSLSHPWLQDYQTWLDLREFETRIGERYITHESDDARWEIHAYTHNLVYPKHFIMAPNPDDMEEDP
Description: as §1

PLK1 = target: T16, PLK1 (Homo sapiens, UniProt P53350)
T16 construct: purchased Reaction Biology Europe GmbH (formerly ProQinase)
Description: as §1

SIK1 = target: T17, SIK1 (Homo sapiens, UniProt P57059)
T17 construct: purchased Reaction Biology Europe GmbH (formerly ProQinase)
Description: as §1

TTBK1 = target: T18, TTBK1 (Homo sapiens, UniProt Q5TCY1)
T18 construct: purchased Reaction Biology Europe GmbH (formerly ProQinase)
Description: as §1

VEGFR2 = target: T19, VEGFR2 (Homo sapiens, UniProt P35968)
T19 construct: purchased Reaction Biology Europe GmbH (formerly ProQinase)
Description: as §1

T9 sequence (P53671 whole entry): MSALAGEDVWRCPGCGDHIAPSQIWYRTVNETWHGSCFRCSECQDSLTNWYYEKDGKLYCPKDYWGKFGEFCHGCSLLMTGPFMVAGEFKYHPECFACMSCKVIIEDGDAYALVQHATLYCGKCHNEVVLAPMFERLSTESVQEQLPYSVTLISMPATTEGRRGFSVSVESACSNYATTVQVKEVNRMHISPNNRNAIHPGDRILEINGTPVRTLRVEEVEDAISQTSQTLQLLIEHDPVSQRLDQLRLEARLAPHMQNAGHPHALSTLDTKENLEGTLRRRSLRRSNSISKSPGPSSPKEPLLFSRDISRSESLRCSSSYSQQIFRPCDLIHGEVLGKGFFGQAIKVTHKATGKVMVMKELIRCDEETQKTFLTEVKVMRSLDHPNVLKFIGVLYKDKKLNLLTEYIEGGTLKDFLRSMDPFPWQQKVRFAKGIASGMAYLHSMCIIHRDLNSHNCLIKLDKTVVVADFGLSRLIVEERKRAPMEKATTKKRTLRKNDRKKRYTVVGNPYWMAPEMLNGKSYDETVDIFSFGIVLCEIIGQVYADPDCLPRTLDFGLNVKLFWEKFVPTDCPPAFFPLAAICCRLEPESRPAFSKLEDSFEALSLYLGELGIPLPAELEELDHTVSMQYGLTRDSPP
T10 sequence (O95819 whole entry): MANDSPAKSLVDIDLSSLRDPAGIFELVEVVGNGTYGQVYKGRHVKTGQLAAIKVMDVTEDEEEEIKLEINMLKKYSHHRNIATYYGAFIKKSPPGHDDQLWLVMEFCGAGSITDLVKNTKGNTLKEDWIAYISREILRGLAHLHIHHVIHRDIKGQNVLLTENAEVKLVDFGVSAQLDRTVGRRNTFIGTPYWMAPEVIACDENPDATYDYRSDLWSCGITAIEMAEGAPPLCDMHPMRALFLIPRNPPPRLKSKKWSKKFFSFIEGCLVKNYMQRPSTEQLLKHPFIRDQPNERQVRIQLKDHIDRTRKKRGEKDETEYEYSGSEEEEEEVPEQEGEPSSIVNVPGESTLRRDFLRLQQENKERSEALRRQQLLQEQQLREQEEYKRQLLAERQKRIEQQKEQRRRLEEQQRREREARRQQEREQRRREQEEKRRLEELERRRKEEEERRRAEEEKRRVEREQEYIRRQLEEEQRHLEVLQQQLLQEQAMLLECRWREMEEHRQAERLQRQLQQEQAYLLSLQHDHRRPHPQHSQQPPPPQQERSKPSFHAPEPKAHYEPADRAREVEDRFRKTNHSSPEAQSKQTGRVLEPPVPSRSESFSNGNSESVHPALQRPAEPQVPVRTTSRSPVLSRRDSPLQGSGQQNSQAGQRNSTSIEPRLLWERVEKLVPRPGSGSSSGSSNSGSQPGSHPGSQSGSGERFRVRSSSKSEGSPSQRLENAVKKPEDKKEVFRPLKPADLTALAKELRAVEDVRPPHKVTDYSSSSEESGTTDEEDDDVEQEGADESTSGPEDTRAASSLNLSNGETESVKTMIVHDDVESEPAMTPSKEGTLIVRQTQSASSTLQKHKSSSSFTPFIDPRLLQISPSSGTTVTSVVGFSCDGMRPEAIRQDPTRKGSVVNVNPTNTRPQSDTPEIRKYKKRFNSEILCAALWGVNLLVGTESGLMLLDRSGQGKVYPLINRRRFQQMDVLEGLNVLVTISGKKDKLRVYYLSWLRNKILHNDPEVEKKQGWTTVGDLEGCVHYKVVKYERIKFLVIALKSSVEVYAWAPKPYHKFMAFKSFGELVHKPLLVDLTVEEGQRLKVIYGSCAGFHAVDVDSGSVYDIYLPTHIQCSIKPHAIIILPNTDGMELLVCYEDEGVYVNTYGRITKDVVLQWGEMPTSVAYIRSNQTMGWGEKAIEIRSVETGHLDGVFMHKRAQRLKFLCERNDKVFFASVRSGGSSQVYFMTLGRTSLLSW
T1 sequence (P15056 whole entry): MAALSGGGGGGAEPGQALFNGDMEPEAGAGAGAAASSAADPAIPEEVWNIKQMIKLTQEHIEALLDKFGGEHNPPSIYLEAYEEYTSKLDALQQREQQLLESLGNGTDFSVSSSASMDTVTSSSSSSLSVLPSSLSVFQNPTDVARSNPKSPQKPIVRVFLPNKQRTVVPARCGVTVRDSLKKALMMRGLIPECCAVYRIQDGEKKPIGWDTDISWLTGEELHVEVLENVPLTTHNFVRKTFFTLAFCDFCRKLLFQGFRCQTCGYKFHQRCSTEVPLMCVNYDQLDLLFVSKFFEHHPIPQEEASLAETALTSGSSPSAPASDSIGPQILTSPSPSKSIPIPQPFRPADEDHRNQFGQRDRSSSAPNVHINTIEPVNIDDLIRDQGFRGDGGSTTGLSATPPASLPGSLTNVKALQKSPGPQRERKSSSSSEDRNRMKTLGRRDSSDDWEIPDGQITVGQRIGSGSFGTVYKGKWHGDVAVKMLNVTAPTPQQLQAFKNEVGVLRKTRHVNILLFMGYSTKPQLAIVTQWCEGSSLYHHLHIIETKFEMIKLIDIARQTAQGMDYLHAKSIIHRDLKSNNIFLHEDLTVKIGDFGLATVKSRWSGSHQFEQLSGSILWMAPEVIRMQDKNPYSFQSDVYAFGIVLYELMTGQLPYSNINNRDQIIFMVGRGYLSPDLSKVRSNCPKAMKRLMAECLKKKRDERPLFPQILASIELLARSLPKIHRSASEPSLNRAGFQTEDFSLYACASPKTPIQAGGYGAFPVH
T19 sequence (P35968 20-1356): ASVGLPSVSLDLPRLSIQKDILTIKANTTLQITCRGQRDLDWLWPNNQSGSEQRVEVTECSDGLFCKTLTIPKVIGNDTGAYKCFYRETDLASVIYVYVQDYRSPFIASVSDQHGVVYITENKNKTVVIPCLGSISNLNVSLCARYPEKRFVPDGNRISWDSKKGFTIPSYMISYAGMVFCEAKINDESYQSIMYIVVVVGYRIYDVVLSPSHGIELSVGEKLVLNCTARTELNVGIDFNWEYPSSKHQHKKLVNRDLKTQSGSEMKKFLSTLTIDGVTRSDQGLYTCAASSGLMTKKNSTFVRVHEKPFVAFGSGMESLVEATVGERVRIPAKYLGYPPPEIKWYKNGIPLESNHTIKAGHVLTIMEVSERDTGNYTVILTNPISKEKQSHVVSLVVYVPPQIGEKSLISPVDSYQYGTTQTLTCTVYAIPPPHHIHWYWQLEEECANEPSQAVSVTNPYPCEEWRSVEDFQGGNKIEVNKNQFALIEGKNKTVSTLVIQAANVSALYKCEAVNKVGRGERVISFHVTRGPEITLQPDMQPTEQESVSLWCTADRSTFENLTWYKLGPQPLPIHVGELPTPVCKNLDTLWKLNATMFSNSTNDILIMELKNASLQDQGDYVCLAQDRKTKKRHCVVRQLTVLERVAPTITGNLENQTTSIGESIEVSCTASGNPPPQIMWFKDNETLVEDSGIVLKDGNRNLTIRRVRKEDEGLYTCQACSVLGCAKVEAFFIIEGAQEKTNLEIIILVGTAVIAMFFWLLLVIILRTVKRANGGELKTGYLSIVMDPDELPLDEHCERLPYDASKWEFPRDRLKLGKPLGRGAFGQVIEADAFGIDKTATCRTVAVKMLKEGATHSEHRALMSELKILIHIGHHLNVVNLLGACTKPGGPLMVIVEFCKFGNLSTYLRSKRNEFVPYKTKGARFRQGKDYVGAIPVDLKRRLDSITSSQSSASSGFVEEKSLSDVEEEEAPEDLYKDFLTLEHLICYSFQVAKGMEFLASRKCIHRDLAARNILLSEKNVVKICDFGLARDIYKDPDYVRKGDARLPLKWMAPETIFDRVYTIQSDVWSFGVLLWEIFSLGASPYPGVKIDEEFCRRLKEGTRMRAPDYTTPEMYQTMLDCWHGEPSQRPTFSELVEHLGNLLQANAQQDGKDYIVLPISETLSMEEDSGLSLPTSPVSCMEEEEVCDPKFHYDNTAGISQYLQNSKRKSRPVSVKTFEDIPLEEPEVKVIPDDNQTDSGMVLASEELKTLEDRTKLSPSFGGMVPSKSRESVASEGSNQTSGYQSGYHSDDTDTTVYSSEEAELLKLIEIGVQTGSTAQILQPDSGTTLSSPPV
T14 sequence (P24723 whole entry): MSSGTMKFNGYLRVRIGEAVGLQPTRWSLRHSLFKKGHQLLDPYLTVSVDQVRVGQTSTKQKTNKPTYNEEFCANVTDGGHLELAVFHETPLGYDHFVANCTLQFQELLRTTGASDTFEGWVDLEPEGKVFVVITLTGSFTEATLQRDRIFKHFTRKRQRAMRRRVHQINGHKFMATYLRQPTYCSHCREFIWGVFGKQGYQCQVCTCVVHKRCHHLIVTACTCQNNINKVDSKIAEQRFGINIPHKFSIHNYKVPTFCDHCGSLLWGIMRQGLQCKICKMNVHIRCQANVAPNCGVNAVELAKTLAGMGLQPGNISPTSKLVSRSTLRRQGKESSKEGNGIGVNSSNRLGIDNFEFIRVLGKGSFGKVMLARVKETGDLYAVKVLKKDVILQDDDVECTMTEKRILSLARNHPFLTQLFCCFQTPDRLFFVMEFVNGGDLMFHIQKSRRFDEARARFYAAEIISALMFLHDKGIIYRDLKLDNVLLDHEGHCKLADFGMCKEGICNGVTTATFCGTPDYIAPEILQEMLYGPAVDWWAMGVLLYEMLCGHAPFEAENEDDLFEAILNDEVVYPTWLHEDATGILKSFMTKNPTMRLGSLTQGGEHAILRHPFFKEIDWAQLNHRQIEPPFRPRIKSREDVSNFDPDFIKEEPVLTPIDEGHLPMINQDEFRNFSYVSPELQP
T11 sequence (P49137 whole entry): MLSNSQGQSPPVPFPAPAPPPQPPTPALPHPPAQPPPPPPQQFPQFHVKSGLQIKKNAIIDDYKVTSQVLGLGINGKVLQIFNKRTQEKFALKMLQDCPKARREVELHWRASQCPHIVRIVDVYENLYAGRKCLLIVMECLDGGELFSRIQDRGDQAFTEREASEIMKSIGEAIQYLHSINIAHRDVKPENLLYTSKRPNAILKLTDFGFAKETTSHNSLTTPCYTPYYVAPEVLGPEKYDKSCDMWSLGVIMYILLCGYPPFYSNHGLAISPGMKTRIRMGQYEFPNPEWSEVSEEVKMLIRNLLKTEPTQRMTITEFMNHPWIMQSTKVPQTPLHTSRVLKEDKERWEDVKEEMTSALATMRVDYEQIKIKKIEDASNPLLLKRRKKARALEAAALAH

Structure (SMILES): c1ccc(CNc2cc(-c3c[nH]c4ncccc34)ccn2)cc1 [meriolin 36]
- residual kinase activity (BRAF; 0.3 µM): 66 % of control
- residual kinase activity (BRAF; 3 µM): 50 % of control
- residual kinase activity (CDK2/CycE1; 0.3 µM): 1 % of control
- residual kinase activity (CDK2/CycE1; 3 µM): 1 % of control
- residual kinase activity (CDK4/CycD3; 0.3 µM): 34 % of control
- residual kinase activity (CDK4/CycD3; 3 µM): 6 % of control
- residual kinase activity (CDK5/p25NCK; 0.3 µM): 0 % of control
- residual kinase activity (CDK5/p25NCK; 3 µM): 1 % of control
- residual kinase activity (CLK4; 0.3 µM): 1 % of control
- residual kinase activity (CLK4; 3 µM): 1 % of control
- residual kinase activity (DYRK2; 0.3 µM): 31 % of control
- residual kinase activity (DYRK2; 3 µM): 4 % of control
- residual kinase activity (FES; 0.3 µM): 83 % of control
- residual kinase activity (FES; 3 µM): 50 % of control
- residual kinase activity (LCK; 0.3 µM): 61 % of control
- residual kinase activity (LCK; 3 µM): 18 % of control
- residual kinase activity (LIMK2; 0.3 µM): 70 % of control
- residual kinase activity (LIMK2; 3 µM): 27 % of control
- residual kinase activity (MAP4K4; 0.3 µM): 6 % of control
- residual kinase activity (MAP4K4; 3 µM): 2 % of control
- residual kinase activity (MAPKAPK2; 0.3 µM): 130 % of control
- residual kinase activity (MAPKAPK2; 3 µM): 87 % of control
- residual kinase activity (MKNK1; 0.3 µM): 48 % of control
- residual kinase activity (MKNK1; 3 µM): 16 % of control
- residual kinase activity (PKCβ1; 0.3 µM): 53 % of control
- residual kinase activity (PKCβ1; 3 µM): 9 % of control
- residual kinase activity (PKCη; 0.3 µM): 2 % of control
- residual kinase activity (PKCη; 3 µM): 2 % of control
- residual kinase activity (PKCν; 0.3 µM): 62 % of control
- residual kinase activity (PKCν; 3 µM): 17 % of control
- residual kinase activity (PLK1; 0.3 µM): 100 % of control
- residual kinase activity (PLK1; 3 µM): 66 % of control
- residual kinase activity (SIK1; 0.3 µM): 87 % of control
- residual kinase activity (SIK1; 3 µM): 48 % of control
- residual kinase activity (TTBK1; 0.3 µM): 101 % of control
- residual kinase activity (TTBK1; 3 µM): 77 % of control
- residual kinase activity (VEGFR2; 0.3 µM): 60 % of control
- residual kinase activity (VEGFR2; 3 µM): 19 % of control

Structure (SMILES): COc1ccnc2[nH]cc(-c3cc(N)nc(N)c3)c12 [meriolin 16]
- residual kinase activity (BRAF; 0.03 µM): 94 % of control
- residual kinase activity (CDK2/CycE1; 0.03 µM): 16 % of control
- residual kinase activity (CDK2/CycE1; 0.3 µM): 0 % of control
- residual kinase activity (CDK4/CycD3; 0.03 µM): 95 % of control
- residual kinase activity (CDK4/CycD3; 0.3 µM): 51 % of control
- residual kinase activity (CDK5/p25NCK; 0.03 µM): 16 % of control
- residual kinase activity (CDK5/p25NCK; 0.3 µM): 1 % of control
- residual kinase activity (CLK4; 0.03 µM): 3 % of control
- residual kinase activity (CLK4; 0.3 µM): 0 % of control
- residual kinase activity (DYRK2; 0.03 µM): 6 % of control
- residual kinase activity (DYRK2; 0.3 µM): 1 % of control
- residual kinase activity (FES; 0.03 µM): 93 % of control
- residual kinase activity (FES; 0.3 µM): 87 % of control
- residual kinase activity (LCK; 0.03 µM): 87 % of control
- residual kinase activity (LCK; 0.3 µM): 91 % of control
- residual kinase activity (LIMK2; 0.03 µM): 106 % of control
- residual kinase activity (LIMK2; 0.3 µM): 101 % of control
- residual kinase activity (MAP4K4; 0.03 µM): 76 % of control
- residual kinase activity (MAP4K4; 0.3 µM): 29 % of control
- residual kinase activity (MAPKAPK2; 0.3 µM): 95 % of control
- residual kinase activity (MKNK1; 0.03 µM): 97 % of control
- residual kinase activity (MKNK1; 0.3 µM): 70 % of control
- residual kinase activity (PKCβ1; 0.03 µM): 103 % of control
- residual kinase activity (PKCβ1; 0.3 µM): 50 % of control
- residual kinase activity (PKCη; 0.03 µM): 8 % of control
- residual kinase activity (PKCη; 0.3 µM): 2 % of control
- residual kinase activity (PKCν; 0.03 µM): 89 % of control
- residual kinase activity (PKCν; 0.3 µM): 32 % of control
- residual kinase activity (PLK1; 0.03 µM): 95 % of control
- residual kinase activity (PLK1; 0.3 µM): 90 % of control
- residual kinase activity (SIK1; 0.03 µM): 102 % of control
- residual kinase activity (SIK1; 0.3 µM): 98 % of control
- residual kinase activity (TTBK1; 0.03 µM): 116 % of control
- residual kinase activity (TTBK1; 0.3 µM): 108 % of control
- residual kinase activity (VEGFR2; 0.03 µM): 102 % of control
- residual kinase activity (VEGFR2; 0.3 µM): 98 % of control
